Tests used:
[1] = target: intracellular GCN2 (phosphorylation of the GCN2 substrate eIF2α) (Homo sapiens, UniProt Q9P2K8); test: GCN2 cellular inhibition assay (AlphaScreen SureFire P-eIF2α Ser51, borrelidin-treated U2OS cells); type: cell-based; settings: compounds of Formula IV; biomarker assay, phosphorylated eIF2α Ser51 in borrelidin-treated U2OS cells
In short: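 U2OS cells, adhered overnight, received compounds in 4-fold serial dilutions from 40 μM final, then 10 μM borrelidin for 1 h at 37 °C. Lysates were read by AlphaScreen for phospho-eIF2α Ser51; percent inhibition was set against borrelidin-only wells.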

GCN2 kinase = GCN2 kinase (Homo sapiens, UniProt Q9P2K8); test: GCN2 enzyme inhibition assay (Transcreener ADP2 fluorescence polarization); type: biochemical; settings: Enzyme activity for compounds of Formula IV; Ki(app), 280 μM ATP, 25° C.
Sequence of GCN2 kinase (Q9P2K8 whole entry): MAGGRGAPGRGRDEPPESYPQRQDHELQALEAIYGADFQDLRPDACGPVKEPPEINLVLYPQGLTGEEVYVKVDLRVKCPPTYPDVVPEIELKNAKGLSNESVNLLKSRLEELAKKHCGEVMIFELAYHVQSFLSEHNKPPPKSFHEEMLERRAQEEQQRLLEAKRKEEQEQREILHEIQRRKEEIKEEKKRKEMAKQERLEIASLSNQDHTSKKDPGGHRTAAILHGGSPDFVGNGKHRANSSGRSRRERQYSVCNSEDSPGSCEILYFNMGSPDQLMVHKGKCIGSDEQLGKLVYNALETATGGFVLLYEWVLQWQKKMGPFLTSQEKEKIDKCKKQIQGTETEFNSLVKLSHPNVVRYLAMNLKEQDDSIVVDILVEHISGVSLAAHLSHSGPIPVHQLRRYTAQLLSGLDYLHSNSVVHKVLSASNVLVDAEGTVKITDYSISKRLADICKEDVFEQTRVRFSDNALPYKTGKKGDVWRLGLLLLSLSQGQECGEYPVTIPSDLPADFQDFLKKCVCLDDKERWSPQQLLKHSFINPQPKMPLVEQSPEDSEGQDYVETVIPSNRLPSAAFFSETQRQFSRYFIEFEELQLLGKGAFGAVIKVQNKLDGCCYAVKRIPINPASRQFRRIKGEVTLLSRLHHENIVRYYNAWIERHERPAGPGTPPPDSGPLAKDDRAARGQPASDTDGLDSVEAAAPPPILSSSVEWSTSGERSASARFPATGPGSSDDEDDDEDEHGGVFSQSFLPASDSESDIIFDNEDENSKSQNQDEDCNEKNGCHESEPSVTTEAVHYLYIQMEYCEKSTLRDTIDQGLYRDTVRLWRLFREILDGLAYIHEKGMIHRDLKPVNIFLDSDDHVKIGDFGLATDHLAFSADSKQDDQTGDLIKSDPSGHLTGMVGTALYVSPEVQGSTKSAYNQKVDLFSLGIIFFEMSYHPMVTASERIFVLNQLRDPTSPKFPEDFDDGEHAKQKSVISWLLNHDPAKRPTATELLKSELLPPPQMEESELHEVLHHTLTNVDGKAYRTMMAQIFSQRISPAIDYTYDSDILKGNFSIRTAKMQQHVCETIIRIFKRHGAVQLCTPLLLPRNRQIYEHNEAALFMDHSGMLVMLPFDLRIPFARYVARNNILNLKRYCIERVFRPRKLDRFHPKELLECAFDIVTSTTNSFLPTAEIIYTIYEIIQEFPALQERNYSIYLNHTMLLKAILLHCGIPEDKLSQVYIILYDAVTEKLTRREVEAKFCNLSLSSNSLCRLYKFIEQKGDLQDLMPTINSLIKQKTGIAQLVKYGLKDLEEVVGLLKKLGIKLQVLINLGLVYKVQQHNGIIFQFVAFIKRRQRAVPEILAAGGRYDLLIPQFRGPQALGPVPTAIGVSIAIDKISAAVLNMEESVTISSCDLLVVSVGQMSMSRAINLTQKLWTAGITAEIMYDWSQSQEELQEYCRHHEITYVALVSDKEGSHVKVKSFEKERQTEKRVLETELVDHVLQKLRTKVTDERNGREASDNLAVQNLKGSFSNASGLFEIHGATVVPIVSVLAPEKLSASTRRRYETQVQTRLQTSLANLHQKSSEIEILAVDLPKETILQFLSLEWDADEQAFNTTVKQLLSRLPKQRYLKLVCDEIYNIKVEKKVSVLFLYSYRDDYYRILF
In short: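 Inhibition of 4 nM GCN2 was measured with compound up to 8 μM final, ATP 280 μM and (RS)7 peptide 200 μM over a 1 h, 25 °C reaction. ADP FP readout; IC50 and Ki(app) calculated from percent inhibition.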

Sequence of intracellular GCN2 (phosphorylation of the GCN2 substrate eIF2α) (Q9P2K8 whole entry): as above

SMILES	IC50 [1] [nM]	Ki (GCN2 kinase) [nM]
CC(C)c1nc(C2CCCN(c3ccnc(-c4cnc5cnc(Br)cn45)n3)C2)c[nH]1 (stereo not shown) [IV-384, 6-Bromo-3-(4-(3-(2-isopropyl-1H-imidazol-4-yl)piperidin-1-yl)pyrimidin-2-yl)imidazo[1,2-a]pyrazine]	500 to 5000	10 to 100
CC(C)c1nc(C2=CCCN(c3ccnc(-c4cnc5cnc(Br)cn45)n3)C2)c[nH]1 [IV-385, 6-Bromo-3-(4-(5-(2-isopropyl-1H-imidazol-4-yl)-3,6-dihydropyridin-1(2H)-yl)pyrimidin-2-yl)imidazo[1,2-a]pyrazine]	500 to 5000	10 to 100
OC1(c2cn[nH]c2)CCCN(c2ccnc(-c3cnc4cnc(C(F)(F)F)cn34)n2)C1 (stereo not shown) [IV-386, 3-(1H-Pyrazol-4-yl)-1-(2-(6-(trifluoromethyl)imidazo[1,2-a]pyrazin-3-yl)pyrimidin-4-yl)piperidin-3-ol]	500 to 5000	10 to 100
FC(F)(F)c1cn2c(-c3nccc(N4CCCC(c5c[nH]c(Cl)n5)C4)n3)cnc2cn1 (stereo not shown) [IV-409, 3-(4-(3-(2-Chloro-1H-imidazol-4-yl)piperidin-1-yl)pyrimidin-2-yl)-6-(trifluoromethyl)imidazo[1,2-a]pyrazine]	500 to 5000	< 10
CC1C(c2cn[nH]c2)OCCN1c1nccc(-c2cnc3cnc(C(F)(F)F)cn23)n1 (stereo not shown) [IV-418, 3-Methyl-2-(1H-pyrazol-4-yl)-4-(4-(6-(trifluoromethyl)imidazo[1,2-a]pyrazin-3-yl)pyrimidin-2-yl)morpholine]	500 to 5000	10 to 100
CC1CN(c2ncc(F)c(-c3cnc4cnc(C(F)(F)F)cn34)n2)C(C)C(c2cn[nH]c2)N1 (stereo not shown) [IV-421, 3-(2-(2,5-Dimethyl-3-(1H-pyrazol-4-yl)piperazin-1-yl)-5-fluoropyrimidin-4-yl)-6-(trifluoromethyl)imidazo[1,2-a]pyrazine]	500 to 5000	10 to 100
CC1CN(c2ncc(F)c(-c3cnc4cnc(C(F)(F)F)cn34)n2)CC(c2cn[nH]c2)N1 (stereo not shown) [IV-422, 3-(5-Fluoro-2-(3-methyl-5-(1H-pyrazol-4-yl)piperazin-1-yl)pyrimidin-4-yl)-6-(trifluoromethyl)imidazo[1,2-a]pyrazine]	> 5000	100 to 1000
FC(F)(F)c1cn2c(-c3nccc(N4CCCCC4)n3)cnc2cn1 [IV-423, 3-(4-(Piperidin-1-yl)pyrimidin-2-yl)-6-(trifluoromethyl)imidazo[1,2-a]pyrazine]	> 5000	100 to 1000
CC1CCCN(c2ccnc(-c3cnc4cnc(C(F)(F)F)cn34)n2)C1 (stereo not shown) [IV-424, 3-(4-(3-Methylpiperidin-1-yl)pyrimidin-2-yl)-6-(trifluoromethyl)imidazo[1,2-a]pyrazine]	> 5000	100 to 1000
NC(=O)C1COCCN(c2ccnc(-c3cnc4cnc(C(F)(F)F)cn34)n2)C1 (stereo not shown) [IV-425, 4-(2-(6-(Trifluoromethyl)imidazo[1,2-a]pyrazin-3-yl)pyrimidin-4-yl)-1,4-oxazepane-6-carboxamide]	> 5000	100 to 1000
FC(F)(F)c1cn2c(-c3nccc(N4CCOCC4)n3)cnc2cn1 [IV-426, 4-(2-(6-(Trifluoromethyl)imidazo[1,2-a]pyrazin-3-yl)pyrimidin-4-yl)morpholine]	> 5000	100 to 1000
FC(F)(F)c1cn2c(-c3nccc(N4CCCOCC4)n3)cnc2cn1 [IV-427, 4-(2-(6-(Trifluoromethyl)imidazo[1,2-a]pyrazin-3-yl)pyrimidin-4-yl)-1,4-oxazepane]	> 5000	100 to 1000
OCCC1CCN(c2ccnc(-c3cnc4cnc(C(F)(F)F)cn34)n2)C1 (stereo not shown) [IV-435, 2-(1-(2-(6-(Trifluoromethyl)imidazo[1,2-a]pyrazin-3-yl)pyrimidin-4-yl)pyrrolidin-3-yl)ethan-1-ol]	500 to 5000	100 to 1000
OCC1CCCN1c1ccnc(-c2cnc3cnc(C(F)(F)F)cn23)n1 (stereo not shown) [IV-436, (1-(2-(6-(Trifluoromethyl)imidazo[1,2-a]pyrazin-3-yl)pyrimidin-4-yl)pyrrolidin-2-yl)methanol]	> 5000	100 to 1000
OC1CCCN(c2ccnc(-c3cnc4cnc(C(F)(F)F)cn34)n2)C1 (stereo not shown) [IV-437, 1-(2-(6-(Trifluoromethyl)imidazo[1,2-a]pyrazin-3-yl)pyrimidin-4-yl)piperidin-3-ol]	> 5000	100 to 1000
OCC1CCCN(c2ccnc(-c3cnc4cnc(C(F)(F)F)cn34)n2)C1 (stereo not shown) [IV-439, (1-(2-(6-(Trifluoromethyl)imidazo[1,2-a]pyrazin-3-yl)pyrimidin-4-yl)piperidin-3-yl)methanol]	> 5000	100 to 1000
OCCC1CCN(c2ccnc(-c3cnc4cnc(C(F)(F)F)cn34)n2)CC1 [IV-442, 2-(1-(2-(6-(Trifluoromethyl)imidazo[1,2-a]pyrazin-3-yl)pyrimidin-4-yl)piperidin-4-yl)ethan-1-ol]	> 5000	100 to 1000
OCC1CCN(c2ccnc(-c3cnc4cnc(C(F)(F)F)cn34)n2)CC1 [IV-443, (1-(2-(6-(Trifluoromethyl)imidazo[1,2-a]pyrazin-3-yl)pyrimidin-4-yl)piperidin-4-yl)methanol]	> 5000	100 to 1000
OCCC1CCCN(c2ccnc(-c3cnc4cnc(C(F)(F)F)cn34)n2)C1 (stereo not shown) [IV-444, 2-(1-(2-(6-(Trifluoromethyl)imidazo[1,2-a]pyrazin-3-yl)pyrimidin-4-yl)piperidin-3-yl)ethan-1-ol]	> 5000	100 to 1000
OC1CCCN(c2ccnc(-c3cnc4cnc(C(F)(F)F)cn34)n2)CC1 (stereo not shown) [IV-447, 1-(2-(6-(Trifluoromethyl)imidazo[1,2-a]pyrazin-3-yl)pyrimidin-4-yl)azepan-4-ol]	> 5000	100 to 1000
FC(F)(F)c1cn2c(-c3nccc(-c4cnn(C5CCOC5)c4)n3)cnc2cn1 (stereo not shown) [IV-449, 3-(4-(1-(Tetrahydrofuran-3-yl)-1H-pyrazol-4-yl)pyrimidin-2-yl)-6-(trifluoromethyl)imidazo[1,2-a]pyrazine]	> 5000	100 to 1000
Cc1[nH]ncc1C1CCCN(c2ccnc(-c3cnc4cnc(C(F)(F)F)cn34)n2)C1 (stereo not shown) [IV-452, 3-(4-(3-(5-Methyl-1H-pyrazol-4-yl)piperidin-1-yl)pyrimidin-2-yl)-6-(trifluoromethyl)imidazo[1,2-a]pyrazine]	500 to 5000	< 10

Next, values leading:

IC50 [1] [nM]	Ki (GCN2 kinase) [nM]	SMILES
< 500	< 10	CC1C(c2cn[nH]c2)CCCN1c1ccnc(-c2cnc3cnc(C(F)(F)F)cn23)n1 (stereo not shown) [IV-388, 3-(4-(2-Methyl-3-(1H-pyrazol-4-yl)piperidin-1-yl)pyrimidin-2-yl)-6-(trifluoromethyl)imidazo[1,2-a]pyrazine]
500 to 5000	< 10	CC1C(c2c[nH]cn2)CCCN1c1ccnc(-c2cnc3cnc(C(F)(F)F)cn23)n1 (stereo not shown) [IV-389, 3-(4-(3-(1H-Imidazol-4-yl)-2-methylpiperidin-1-yl)pyrimidin-2-yl)-6-(trifluoromethyl)imidazo[1,2-a]pyrazine]
500 to 5000	< 10	COC1CC(c2cn[nH]c2)CN(c2ccnc(-c3cnc4cnc(C(F)(F)F)cn34)n2)C1 (stereo not shown) [IV-396, 3-(4-(3-Methoxy-5-(1H-pyrazol-4-yl)piperidin-1-yl)pyrimidin-2-yl)-6-(trifluoromethyl)imidazo[1,2-a]pyrazine]
> 5000	100 to 1000	CC1C(c2cn[nH]c2)NCCN1c1ccnc(-c2cnc3cnccn23)n1 (stereo not shown) [IV-397, 3-(4-(2-Methyl-3-(1H-pyrazol-4-yl)piperazin-1-yl)pyrimidin-2-yl)imidazo[1,2-a]pyrazine]
> 5000	10 to 100	Cc1cn2c(-c3nccc(N4CCNC(c5cn[nH]c5)C4C)n3)cnc2cn1 (stereo not shown) [IV-398, 6-Methyl-3-(4-(2-methyl-3-(1H-pyrazol-4-yl)piperazin-1-yl)pyrimidin-2-yl)imidazo[1,2-a]pyrazine]
> 5000	10 to 100	O=C1CN(c2ccnc(-c3cnc4cnc(C(F)(F)F)cn34)n2)CC(c2cn[nH]c2)N1 (stereo not shown) [IV-410, 6-(1H-Pyrazol-4-yl)-4-(2-(6-(trifluoromethyl)imidazo[1,2-a]pyrazin-3-yl)pyrimidin-4-yl)piperazin-2-one]
< 500	< 10	CC1CN(c2ccnc(-c3cnc4cnc(C(F)(F)F)cn34)n2)C(C)C(c2cn[nH]c2)O1 (stereo not shown) [IV-415, 3,6-Dimethyl-2-(1H-pyrazol-4-yl)-4-(2-(6-(trifluoromethyl)imidazo[1,2-a]pyrazin-3-yl)pyrimidin-4-yl)morpholine]
500 to 5000	< 10	CC1CN(c2ccnc(-c3cnc4cnc(C(F)(F)F)cn34)n2)C(C)C(c2cn[nH]c2)O1 (stereo not shown) [IV-416, 3,6-Dimethyl-2-(1H-pyrazol-4-yl)-4-(2-(6-(trifluoromethyl)imidazo[1,2-a]pyrazin-3-yl)pyrimidin-4-yl)morpholine]
500 to 5000	10 to 100	CC1C(c2cn[nH]c2)NCCN1c1ccnc(-c2cnc3cnc(C(F)F)cn23)n1 (stereo not shown) [IV-454, 6-(Difluoromethyl)-3-(4-(2-methyl-3-(1H-pyrazol-4-yl)piperazin-1-yl)pyrimidin-2-yl)imidazo[1,2-a]pyrazine]
500 to 5000	< 10	FC(F)OC1CC(c2cn[nH]c2)CN(c2ccnc(-c3cnc4cnc(C(F)(F)F)cn34)n2)C1 (stereo not shown) [IV-466, 3-(4-(3-(Difluoromethoxy)-5-(1H-pyrazol-4-yl)piperidin-1-yl)pyrimidin-2-yl)-6-(trifluoromethyl)imidazo[1,2-a]pyrazine]

— patent US10988477B2 (Merck Patent GmbH, priority 2018, dated 2021)
